According to patent US5786344A, “Camptothecin drug combinations and methods with reduced side effects” (priority 1995, dated 1998):
Entries after “also recorded” stand apart in the source; their conditions may differ.

Key:
[1] = Phase I toxicity evaluation (CALGB expanded toxicity criteria); format: in vivo, human
Protocol: […]. The detailed examples presented in the present application reflect treatment on 21 patients.
Significant gastrointestinal toxicity was first manifested at the second dose level (120 mg/m2). […] […]. […] Two of these cases were found at exploratory laparotomy to be due to progression of disease and one resolved after conservative therapy, but was likely due to progression of disease. […] In a few patients, however, high doses of ondansetron were required to achieve relief.
Toxicity assessment was done according to the CALGB expanded toxicity criteria. Patients who experienced>grade 2 diarrhea at any time while on study were begun on loperamide 4 mg p.o. followed by 2 mg p.o. after every stool up to a total dose of 16 mg/day. If loperamide was unsuccessful in controlling diarrhea, patients were begun on octreotide acetate 100-600 μg for 2-3 doses per day. Stool collections were also obtained to test for any co-existing infection. […]

[2] = rats, cited from earlier work
[3] = human, in vivo; cited from earlier work
[4] = cited from earlier work
UDP-GT = assay: in vivo
Description: (§1) Of these 2 types of inducers, phenobarbital has been used as an […] and a mildly sedative agent in humans. The inventors' objective here was to investigate the effect of phenobarbital administration on the glucuronidation of SN-38 in rats.
(§2) Animal protocol: Female Wistar rats (~200 gm) having a permanent catheter installed in the right jugular vein were obtained from Charles River Breeding Laboratories (Wilmington, Mass.).
(§3) Three rats were given a single intraperitoneal dose of 100 mg/kg phenobarbital in physiological saline followed by 0.1% (w/v) phenobarbital in drinking water for four days. […] After each sample the catheter was flushed with an equal volume of physiologic saline. The samples were immediately centrifuged at 2500×g for 10 minutes and the plasma obtained was stored at -70° C. until analysis.
(§4) Data Analysis: The plasma concentration-time profile of the control and pretreated groups of rats were analyzed using non-compartmental methods (PCNONLIN, SCI, Lexington, Ky.). […] The nonparametric Mann-Whitney test was used to test for differences in AUC between the control and pretreated groups.

in vivo = conditions: rat, in vivo, iv, 20 mg/kg
Description: as §1, §2, §3, §4

p-glycoprotein = molecular target: T1, p-glycoprotein (Homo sapiens, UniProt P08183); assay: in vitro; format: binding
T1 construct: membrane vesicles from the multidrug resistant breast tumor cell line; endogenous in cells; host or cells: MCF-7/Adr (multidrug resistant human breast cancer cell line), membrane vesicles
T1 sequence (P08183 whole entry): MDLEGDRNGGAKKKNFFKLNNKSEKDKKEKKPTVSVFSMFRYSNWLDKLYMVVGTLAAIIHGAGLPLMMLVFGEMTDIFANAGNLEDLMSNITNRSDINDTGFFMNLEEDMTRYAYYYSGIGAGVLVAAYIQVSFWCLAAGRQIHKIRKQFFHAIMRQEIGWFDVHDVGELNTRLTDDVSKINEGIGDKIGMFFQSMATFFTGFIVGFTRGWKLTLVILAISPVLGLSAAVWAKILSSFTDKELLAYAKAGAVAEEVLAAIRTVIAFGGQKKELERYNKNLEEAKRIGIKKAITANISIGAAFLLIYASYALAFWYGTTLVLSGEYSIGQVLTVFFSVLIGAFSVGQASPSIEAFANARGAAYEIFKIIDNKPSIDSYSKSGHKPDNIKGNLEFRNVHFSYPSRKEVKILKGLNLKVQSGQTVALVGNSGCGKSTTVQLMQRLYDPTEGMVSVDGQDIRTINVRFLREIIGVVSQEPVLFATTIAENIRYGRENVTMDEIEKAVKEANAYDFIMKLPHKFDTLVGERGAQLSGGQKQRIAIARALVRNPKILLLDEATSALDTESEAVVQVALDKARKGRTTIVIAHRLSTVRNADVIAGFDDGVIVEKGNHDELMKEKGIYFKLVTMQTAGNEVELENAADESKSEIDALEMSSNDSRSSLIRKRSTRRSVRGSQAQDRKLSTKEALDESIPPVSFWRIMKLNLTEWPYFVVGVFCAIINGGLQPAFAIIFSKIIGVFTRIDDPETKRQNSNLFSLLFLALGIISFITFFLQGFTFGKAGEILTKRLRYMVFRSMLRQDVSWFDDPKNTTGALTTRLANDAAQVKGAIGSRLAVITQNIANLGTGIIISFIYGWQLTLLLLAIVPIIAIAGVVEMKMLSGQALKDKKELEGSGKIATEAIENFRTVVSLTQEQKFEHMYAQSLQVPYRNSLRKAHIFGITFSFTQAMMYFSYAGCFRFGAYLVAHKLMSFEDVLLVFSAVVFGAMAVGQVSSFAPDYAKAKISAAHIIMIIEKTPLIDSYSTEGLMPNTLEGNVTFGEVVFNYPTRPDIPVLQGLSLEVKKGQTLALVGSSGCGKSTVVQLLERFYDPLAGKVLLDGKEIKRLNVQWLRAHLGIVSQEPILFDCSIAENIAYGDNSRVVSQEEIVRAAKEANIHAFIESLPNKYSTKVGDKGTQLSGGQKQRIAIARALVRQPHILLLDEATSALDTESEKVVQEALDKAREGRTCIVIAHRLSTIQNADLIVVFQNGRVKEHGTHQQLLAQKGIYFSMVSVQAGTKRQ
Description: FIG. 5. […]. Membrane vesicles from the multidrug resistant human breast cancer tumor cell line […] were used. […].

tumors = conditions: preclinical and clinical tumors; cited from earlier work

CCc1c2c(nc3ccc(OC(=O)N4CCC(N5CCCCC5)CC4)cc13)-c1cc3c(c(=O)n1C2)COC(=O)[C@]3(O)CC [CPT-11, 7-ethyl-10-[4-(1-piperidino)-1-piperidino)carbonyloxycamptot hecin]
myelosuppression ([1]; 100 mg/m2): not a significant toxicity | diarrhea ([1]; 100 mg/m^2): No diarrhea was observed | myelosuppression ([1]; 120 mg/m2): dose-limiting in one patient | patients developing grade 3-4 diarrhea ([1]; 120 mg/m^2): 34% | myelosuppression ([1]; 145 mg/m2, ameliorated by prophylactic G-CSF): dose-limiting in two patients | neutropenia >grade 1 ([1]; 145 mg/m2 with G-CSF): No cases | patients developing grade 3-4 diarrhea ([1]; 145 mg/m^2): 50% | neutropenic fevers ([1]; 175 mg/m2, first two patients, despite prophylactic G-CSF): hospitalized with neutropenic fevers | patients developing grade 3-4 diarrhea ([1]; 175 mg/m^2): 100% | major toxicities ([1]; 100-175 mg/m2): myelosuppression, diarrhea, and abdominal cramping pain | abdominal cramping ([1]; Patients 4 (120 mg/m2), 21 and 15 (145 mg/m2)): grade 3 abdominal cramping | neutropenic fevers ([1]; Patients 13 and 16, 145 mg/m2, cycle 1): hospitalized with neutropenic fevers | small bowel obstructions ([1]; likely due to progression of disease): Three patients developed small bowel obstructions | nausea and vomiting ([1]; majority of patients, doses >120 mg/m2): grade 1-2 nausea and vomiting | abdominal cramps ([1]; other patients): Four other patients had mild (grade 1) abdominal cramps | biliary radioactivity excreted over 24 h as ([2]; 24 h): 55% | biliary radioactivity reabsorbed from the intestine [2]: approximately 18% | DLT in Phase I studies in Japan and Europe/US [3]: either myelosuppression or diarrhea | route of excretion ([4]; animal studies): equally excreted into bile and urine | dose eliminated in the urine ([4]; rats, % of CPT-11 dose): about 20% | decrease in availability (UDP-GT; UDP-GT induction by phenobarbital): ~2 fold | decline in AUC (UDP-GT; phenobarbital pretreated): 60% | Change in AUC CPT-11 (UDP-GT; phenobarbital pretreated vs control): -60.29% | AUC at 6 h (in vivo; AUC CPT-11, control, CPT-11 20 mg/kg iv, n = 4, 0-6 h): 7700 ± 2670 ng·h/mL | AUC at 6 h (in vivo; AUC CPT-11, phenobarbital pretreated, CPT-11 20 mg/kg, n = 2): 3060 ng·h/mL | substrate of p-glycoprotein (p-glycoprotein): substrates of p-glycoprotein | inhibition at 10 µM (p-glycoprotein; human, mcf-7/adr membrane vesicles): 80% | antitumor activity (tumors): significant activity in a broad spectrum of in vitro and in vivo tumor models; also recorded: antitumor activity in phase II trials
